Assay results taken from paper PMC11433014, “In Vitro In Silico Screening Strategy and Mechanism of Novel Tyrosinase Inhibitory Peptides from Nacre of Hyriopsis cumingii” (Marine Drugs, 2024).
Entries after “also recorded” stand apart in the source; their conditions may differ. Where no end group is shown, it is not given here.

Columns and labels:
[1] = molecular target: T1, Tyrosinase (Agaricus bisporus, UniProt C7FF04); test: Tyrosinase inhibitory activity assay (mushroom tyrosinase, L-tyrosine substrate); type: biochemical; conditions: 0.5 mg/mL L-tyrosine, PBS, 20 μL tyrosinase (500 U/mL), preincubation 37 °C 10 min, reaction 10 min at 37 °C; mean ± SD of at least three experiments
T1 construct: purchased Shanghai Yuanye Biotechnology Co., Ltd. (Shanghai, China)
Protocol: Tyrosinase (from Mushroom, 500 U/mg) and PBS buffer were purchased from Shanghai Yuanye Biotechnology Co., Ltd. (Shanghai, China). L-tyrosine was obtained from Shanghai Macklin Biochemical Technology Co., Ltd. (Shanghai, China).
A solution of L-tyrosine at a concentration of 0.5 mg/mL, along with the sample solution and PBS buffer, was sequentially introduced into a 96-well plate. The mixture was thoroughly homogenized and subsequently incubated at 37 °C for 10 min. Following this incubation, 20 μL of tyrosinase solution (500 U/mL) was added to each well, and the plate was promptly placed in an enzyme marker for a reaction period of (10 min ± 5 s) at 37 °C.

[2] = DPPH free radical scavenging capacity (kit); conditions: synthetic peptides, 1 mg/mL; comparison among the three peptides, in words
Protocol: (§1) Use a concentration of 1 mg/mL of the enzymatic hydrolysate to assess the free radical scavenging rate. DPPH and ABTS free radical scavenging capacity assays were conducted using kits from Grace Biotechnology Co., Ltd. (Suzhou, Jiangsu, China). The subsequent determination of the inhibitory rate of peptide tyrosinase synthesis and the antioxidant measurement methods refer to this step.

[3] = ABTS free radical scavenging capacity (kit); conditions: synthetic peptides, 1 mg/mL; ranking among the three peptides (p < 0.05)
Protocol: as §1

[4] = tested on: tyrosinase activity in B16F10 cells; test: Intracellular tyrosinase activity in B16F10 cells; type: cell-based, mouse; conditions: 50 μg/mL (highest treatment concentration; Kojic acid 50 μg/mL), 24 h, L-DOPA, 475 nm, vs control
Protocol: Cells in the logarithmic growth phase were cultured at a density of 4 × 10^5 cells per well in 6-well plates. Following a 24 h incubation period, the culture supernatant was discarded. Experimental groups were established, including a control group, a positive control group treated with Kojic acid at a concentration of 50 µg/mL [40], and peptide-treated groups at concentrations of 10, 25, and 50 µg/mL. After an additional 24 h of incubation, the cells were lysed, and the resulting cell lysates were subjected to centrifugation at 12,000 rpm for 10 min. The reaction mixture was prepared by combining 50 µL of the cell lysate supernatant, 50 µL of 1 mg/mL L-DOPA, and 50 µL of PBS buffer. This mixture was incubated at 37 °C for 1 h. Subsequently, the level of […] formation was quantified spectrophotometrically at a wavelength of 475 nm. The activity of tyrosinase was reported as a percentage relative to the blank control.

[5] = tested on: melanin production in B16F10 cells; test: Melanin content of B16F10 cells; type: cell-based, mouse; conditions: 50 μg/mL (highest treatment concentration; Kojic acid 50 μg/mL), 48 h, absorbance 405 nm, vs control
Protocol: Cells in the logarithmic growth phase were cultured at a density of 4 × 10^5 cells per well in 6-well plates. Following a 24 h incubation period, the culture supernatant was discarded. Experimental groups were established, including a control group, a positive control group treated with Kojic acid at a concentration of 50 µg/mL [40], and peptide-treated groups at concentrations of 10, 25, and 50 µg/mL. After an additional 24 h of incubation, the cells were lysed, and the resulting cell lysates were subjected to centrifugation at 12,000 rpm for 10 min. The reaction mixture was prepared by combining 50 µL of the cell lysate supernatant, 50 µL of 1 mg/mL L-DOPA, and 50 µL of PBS buffer. This mixture was incubated at 37 °C for 1 h. Subsequently, the level of dopamine formation was quantified spectrophotometrically at a wavelength of 475 nm.
The cell culture stage for melanin content determination was as follows: The cells were washed twice with PBS buffer after 48 h of peptide treatment. Trypsin digestion was performed, and the cells were collected. […] Then, 200 µL of the supernatant was transferred to a 96-well plate, and the absorbance was measured at 405 nm. The melanin content was then expressed as a percentage of the control group.

[6] = tested on: catalase (CAT); test: CAT activity in B16F10 cells; type: cell-based, mouse; conditions: 50 μg/mL (highest treatment concentration; Kojic acid 50 μg/mL)
Protocol: (§2) Cell culture and treatment methods were the same as described in Section 3.10. The activities of catalase (CAT), glutathione peroxidase (GSH-Px), and superoxide dismutase (SOD) were determined using the assay kit from Nanjing Jianjian Bioengineering Research Institute (Nanjing, China).

[7] = tested on: glutathione peroxidase (GSH-Px); test: GSH-Px activity in B16F10 cells; type: cell-based, mouse; conditions: 50 μg/mL (highest treatment concentration; Kojic acid 50 μg/mL)
Protocol: as §2

[8] = tested on: superoxide dismutase (SOD); test: SOD activity in B16F10 cells; type: cell-based, mouse; conditions: 50 μg/mL (highest treatment concentration; Kojic acid 50 μg/mL)
Protocol: as §2

[9] = tested on: B16F10 cells; test: Cytotoxicity to B16F10 cells (CCK-8); type: cell-based, mouse; conditions: 10–800 μg/mL
Protocol: B16F10 cells were purchased from Hunan FengHui Biotechnology Co., Ltd. (Changsha, Hunan, China). Cell cultures of B16F10, specifically from generations 10 to 25, were maintained in a medium consisting of DMEM supplemented with 10% fetal bovine serum and 1% antibiotic–antifungal solution, under conditions of 5% CO2 at 37 °C.
Cell viability was evaluated utilizing the Cell Counting Kit-8 (CCK-8) assay. During the logarithmic growth phase, 100 µL of cell suspension, containing 3000 cells per well, was transferred into 96-well plates. Following a 24 h incubation period at 37 °C, the supernatant was discarded. Wells containing 100 µL of medium were designated as blank controls. […]

T1 sequence (C7FF04 1-392): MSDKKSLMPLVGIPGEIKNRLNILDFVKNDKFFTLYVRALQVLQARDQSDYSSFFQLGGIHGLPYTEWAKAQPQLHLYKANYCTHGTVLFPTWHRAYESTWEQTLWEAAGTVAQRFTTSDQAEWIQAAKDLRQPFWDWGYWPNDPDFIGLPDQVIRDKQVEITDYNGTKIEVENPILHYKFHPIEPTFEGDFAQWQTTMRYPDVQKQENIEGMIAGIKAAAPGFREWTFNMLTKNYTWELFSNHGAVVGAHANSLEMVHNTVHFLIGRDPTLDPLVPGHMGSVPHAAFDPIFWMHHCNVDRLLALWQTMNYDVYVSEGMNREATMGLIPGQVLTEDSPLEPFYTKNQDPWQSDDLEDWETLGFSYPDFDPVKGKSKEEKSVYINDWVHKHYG

Compound	IC50 [1]	DPPH radical scavenging effect [2]	ABTS radical scavenging ability (ranking) [3]	decrease of intracellular tyrosinase activity [4]	decrease of melanin content [5]	increase of CAT activity [6]	increase of GSH-Px activity [7]	increase of SOD activity [8]	viability of B16F10 cells [9]	cytotoxicity / viability vs control group ([9]; in words)
YVPGHG [YVPGHG, Tyr-Val-Pro-Gly-His-Gly]	> 50000 µM	remained consistent at a concentration of 1 mg/mL (p > 0.05)	GYHFHSYP > YPNPY > YVPGHG (p < 0.05)							
GYHFHSYP [GYHFHSYP, Gly-Tyr-His-Phe-His-Ser-Tyr-Pro]	> 5000 µM	remained consistent at a concentration of 1 mg/mL (p > 0.05)	GYHFHSYP > YPNPY > YVPGHG (p < 0.05)							
O=c1cc(CO)occ1O [Kojic acid]				16.64%	17.39%	32.04%	25.56%	68.81%		
YPNPY [YPNPY, Tyr-Pro-Asn-Pro-Tyr]	545 ± 28 µM								~100%	no significant difference in the viability of B16F10 cells; also recorded: did not exhibit any cytotoxic effects
